# Reference: patent US8163728B2, “Pyrazoles” (Hoffmann-La Roche Inc., priority 2009, dated 2012)
# Target: T1, GABA A α5 (Homo sapiens, UniProt P18507+P31644)
# T1 construct: expressed in transfected cells; host or cells: HEK293 cells, transiently transfected; membranes prepared from cell pellets
# Assay: [3H]flumazenil competition binding, human GABA A α5β3γ2 receptors in HEK293 cell membranes
# Conditions: human receptor α5β3γ2 transiently transfected in HEK293; 0.5 nM [3H]flumazenil; 1 hour at 4° C.; means of two determinations; read-out: hKi GABA A α5
# Procedure, shortened: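 Competition with [3H]flumazenil for binding to membranes of HEK293 cells transiently expressing human α5β3γ2, in Krebs-tris buffer pH 7.5. Incubated to equilibrium 1 h at 4 °C, filtered and scintillation-counted; Ki values are means of two determinations.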
row,Compound,Ki
1,"CCNC(=O)c1cc(/C=C/c2c(-c3ccc(F)cc3)noc2C)nn1C [Example 123, 5-{(E)-2-[3-(4-Fluoro-phenyl)-5-methyl-isoxazol-4-yl]vinyl}-2-methyl-2H-pyrazole-3-carboxylic acid ethylamide]",1.3 nM
2,"Cc1onc(-c2ccc(F)cc2)c1/C=C/c1cc(C(=O)NCC(C)(C)O)n(C)n1 [Example 124, 5-{(E)-2-[3-(4-Fluoro-phenyl)-5-methyl-isoxazol-4-yl]vinyl}-2-methyl-2H-pyrazole-3-carboxylic acid (2-hydroxy-2-methyl-propyl)-amide]",2 nM
3,"Cc1onc(-c2ccc(F)cc2)c1/C=C/c1cc(C(=O)NC2CCOCC2)n(C)n1 [Example 125, 5-{(E)-2-[3-(4-Fluoro-phenyl)-5-methyl-isoxazol-4-yl]vinyl}-2-methyl-2H-pyrazole-3-carboxylic acid (tetrahydro-pyran-4-yl)-amide]",0.4 nM
4,"Cc1onc(-c2ccc(F)cc2)c1/C=C/c1cc(C(N)=O)n(C)n1 [Example 126, 5-{(E)-2-[3-(4-Fluoro-phenyl)-5-methyl-isoxazol-4-yl]vinyl}-2-methyl-2H-pyrazole-3-carboxylic acid amide]",1.5 nM
5,"Cc1onc(-c2ccc(F)cc2)c1/C=C/c1cc(C(=O)N2CCS(=O)(=O)CC2)n(C)n1 [Example 127, (1,1-Dioxo-1,6-thiomorpholin-4-yl)-(5-{(E)-2-[3-(4-fluoro-phenyl)-5-methyl-isoxazol-4-yl]-vinyl}-2-methyl-2H-pyrazol-3-yl)-methanone]",29.3 nM
6,"Cc1onc(-c2ccc(F)cc2)c1/C=C/c1cc(C(=O)NCC(F)(F)F)n(C)n1 [Example 128, 5-{(E)-2-[3-(4-Fluoro-phenyl)-5-methyl-isoxazol-4-yl]vinyl}-2-methyl-2H-pyrazole-3-carboxylic acid (2,2,2-trifluoro-ethyl)-amide]",1.2 nM
7,"Cc1onc(-c2ccc(F)cc2)c1/C=C/c1cc(C(=O)N2CCOCC2)n(C)n1 [Example 129, (5-{(E)-2-[3-(4-Fluoro-phenyl)-5-methyl-isoxazol-4-yl]vinyl}-2-methyl-2H-pyrazol-3-yl)-morpholin-4-yl-methanone]",11.8 nM
8,"Cc1onc(-c2ccc(F)cc2)c1/C=C/c1cc(C(=O)NC(C)CO)n(C)n1 (centres unmarked) [Example 130, 5-{(E)-2-[3-(4-Fluoro-phenyl)-5-methyl-isoxazol-4-yl]vinyl}-2-methyl-2H-pyrazole-3-carboxylic acid (2-hydroxy-1-methyl-ethyl)-amide]",0.9 nM
9,"Cc1onc(-c2ccc(F)cc2)c1/C=C/c1cc(C(=O)N2CCS(=O)(=O)CC2)[nH]n1 [Example 131, (1,1-Dioxo-1,6-thiomorpholin-4-yl)-(5-{(E)-2-[3-(4-fluoro-phenyl)-5-methyl-isoxazol-4-yl]-vinyl}-2H-pyrazol-3-yl)-methanone]",36.5 nM
10,"Cc1onc(-c2ccc(F)cc2)c1/C=C/c1cc(C(=O)N2CCOCC2)[nH]n1 [Example 132, (5-{(E)-2-[3-(4-Fluoro-phenyl)-5-methyl-isoxazol-4-yl]vinyl}-2H-pyrazol-3-yl)-morpholin-4-yl-methanone]",50.6 nM
11,"Cc1onc(-c2ccc(F)cc2)c1/C=C/c1cc(C(=O)NCC(F)(F)F)[nH]n1 [Example 133, 5-{(E)-2-[3-(4-Fluoro-phenyl)-5-methyl-isoxazol-4-yl]vinyl}-2H-pyrazole-3-carboxylic acid (2,2,2-trifluoro-ethyl)-amide]",4.1 nM
12,"Cc1onc(-c2ccc(F)cc2)c1/C=C/c1cc(C(=O)NC(C)C)[nH]n1 [Example 134, 5-{(E)-2-[3-(4-Fluoro-phenyl)-5-methyl-isoxazol-4-yl]-vinyl}-2H-pyrazole-3-carboxylic acid isopropylamide]",5.2 nM
13,"Cc1onc(-c2ccc(F)cc2)c1/C=C/c1cc(C(=O)N2CC3(COC3)C2)n(C)n1 [Example 135, (5-{(E)-2-[3-(4-Fluoro-phenyl)-5-methyl-isoxazol-4-yl]-vinyl}-2-methyl-2H-pyrazol-3-yl)-(2-oxa-6-aza-spiro[3.3]hept-6-yl)-methanone]",2.4 nM
14,"Cc1onc(-c2ccc(F)cc2)c1/C=C/c1cc(C(=O)N2CC3(COC3)C2)[nH]n1 [Example 137, (5-{(E)-2-[3-(4-Fluoro-phenyl)-5-methyl-isoxazol-4-yl]vinyl}-2H-pyrazol-3-yl)-(2-oxa-6-aza-spiro[3.3]hept-6-yl)-methanone]",1.4 nM
15,"Cc1onc(-c2ccc(F)cc2)c1/C=C/c1cc(C(=O)NC(C)(C)CO)[nH]n1 [Example 138, 5-{(E)-2-[3-(4-Fluoro-phenyl)-5-methyl-isoxazol-4-yl]vinyl}-2H-pyrazole-3-carboxylic acid (2-hydroxy-1,1-dimethyl-ethyl)-amide]",11 nM
16,"Cc1onc(-c2ccc(F)cc2)c1/C=C/c1cc(C(=O)NC(C)CO)[nH]n1 (centres unmarked) [Example 139, 5-{(E)-2-[3-(4-Fluoro-phenyl)-5-methyl-isoxazol-4-yl]-vinyl}-2H-pyrazole-3-carboxylic acid (2-hydroxy-1-methyl-ethyl)-amide]",3 nM

row,Compound,Ki
1,"Cc1onc(-c2ccc(F)cc2)c1/C=C/c1cc(C(=O)NCC(C)(C)O)[nH]n1 [Example 140, 5-{(E)-2-[3-(4-Fluoro-phenyl)-5-methyl-isoxazol-4-yl]vinyl}-2H-pyrazole-3-carboxylic acid (2-hydroxy-2-methyl-propyl)-amide]",3.8 nM
2,"CCNC(=O)c1cc(/C=C/c2c(-c3ccc(F)cc3)noc2C)n[nH]1 [Example 141, 5-{(E)-2-[3-(4-Fluoro-phenyl)-5-methyl-isoxazol-4-yl]vinyl}-2H-pyrazole-3-carboxylic acid ethylamide]",8.1 nM
3,"Cc1onc(-c2ccc(F)cc2)c1/C=C/c1cc(C(N)=O)[nH]n1 [Example 142, 5-{(E)-2-[3-(4-Fluoro-phenyl)-5-methyl-isoxazol-4-yl]vinyl}-2H-pyrazole-3-carboxylic acid amide]",4.8 nM
4,"Cc1onc(-c2ccc(F)cc2)c1/C=C/c1cc(C(=O)NC(C)(C)CO)n(C)n1 [Example 143, 5-{(E)-2-[3-(4-Fluoro-phenyl)-5-methyl-isoxazol-4-yl]vinyl}-2-methyl-2H-pyrazole-3-carboxylic acid (2-hydroxy-1,1-dimethyl-ethyl)-amide]",7.4 nM
5,"Cc1onc(-c2ccc(F)cc2)c1CNc1cc(C(=O)NCC(C)(C)O)n(C)n1 [Example 144, 5-{[3-(4-Fluoro-phenyl)-5-methyl-isoxazol-4-ylmethyl]-amino}-2-methyl-2H-pyrazole-3-carboxylic acid (2-hydroxy-2-methyl-propyl)-amide]",29.3 nM
6,"Cc1onc(-c2ccc(F)cc2)c1CNc1cc(C(N)=O)n(C)n1 [Example 145, 5-{[3-(4-Fluoro-phenyl)-5-methyl-isoxazol-4-ylmethyl]-amino}-2-methyl-2H-pyrazole-3-carboxylic acid amide]",69.6 nM
7,"Cc1onc(-c2ccc(F)cc2)c1CNc1cc(C(=O)NCC(F)(F)F)n(C)n1 [Example 146, 5-{[3-(4-Fluoro-phenyl)-5-methyl-isoxazol-4-ylmethyl]-amino}-2-methyl-2H-pyrazole-3-carboxylic acid (2,2,2-trifluoro-ethyl)-amide]",15.2 nM
8,"Cc1onc(-c2ccc(F)cc2)c1CNc1cc(C(=O)NC2CCOCC2)n(C)n1 [Example 147, 5-{[3-(4-Fluoro-phenyl)-5-methyl-isoxazol-4-ylmethyl]-amino}-2-methyl-2H-pyrazole-3-carboxylic acid (tetrahydro-pyran-4-yl)-amide]",4.7 nM
9,"Cc1onc(-c2ccc(F)cc2)c1CNc1cc(C(=O)NC2(C)COC2)n(C)n1 [Example 148, 5-{[3-(4-Fluoro-phenyl)-5-methyl-isoxazol-4-ylmethyl]-amino}-2-methyl-2H-pyrazole-3-carboxylic acid (3-methyl-oxetan-3-yl)-amide]",5.4 nM
10,"Cc1onc(-c2ccc(F)cc2)c1CNc1cc(C(=O)N2CC3(COC3)C2)n(C)n1 [Example 149, (5-{[3-(4-Fluoro-phenyl)-5-methyl-isoxazol-4-ylmethyl]-amino}-2-methyl-2H-pyrazol-3-yl)-(2-oxa-6-aza-spiro[3.3]hept-6-yl)-methanone]",67.5 nM
11,"Cc1onc(-c2ccc(F)cc2)c1CNc1cc(C(=O)NC(C)CO)n(C)n1 (centres unmarked) [Example 150, 5-{[3-(4-Fluoro-phenyl)-5-methyl-isoxazol-4-ylmethyl]-amino}-2-methyl-2H-pyrazole-3-carboxylic acid (2-hydroxy-1-methyl-ethyl)-amide]",26.2 nM
12,"Cc1onc(-c2ccc(F)cc2)c1CNc1cc(C(=O)NC(C)C)n(C)n1 [Example 151, 5-{[3-(4-Fluoro-phenyl)-5-methyl-isoxazol-4-ylmethyl]-amino}-2-methyl-2H-pyrazole-3-carboxylic acid isopropylamide]",13.6 nM
13,"Cc1onc(-c2ccc(F)cc2)c1CNc1cc(C(=O)NCC(C)(C)O)[nH]n1 [Example 152, 5-{[3-(4-Fluoro-phenyl)-5-methyl-isoxazol-4-ylmethyl]-amino}-2H-pyrazole-3-carboxylic acid (2-hydroxy-2-methyl-propyl)-amide]",20.9 nM
14,"Cc1onc(-c2ccc(F)cc2)c1CNc1cc(C(N)=O)[nH]n1 [Example 153, 5-{[3-(4-Fluoro-phenyl)-5-methyl-isoxazol-4-ylmethyl]-amino}-2H-pyrazole-3-carboxylic acid amide]",43.4 nM
15,"Cc1onc(-c2ccc(F)cc2)c1CNc1cc(C(=O)NC(C)C)[nH]n1 [Example 154, 5-{[3-(4-Fluoro-phenyl)-5-methyl-isoxazol-4-ylmethyl]-amino}-2H-pyrazole-3-carboxylic acid isopropylamide]",13 nM
16,"CCNC(=O)c1cc(NCc2c(-c3ccc(F)cc3)noc2C)n[nH]1 [Example 155, 5-{[3-(4-Fluoro-phenyl)-5-methyl-isoxazol-4-ylmethyl]-amino}-2H-pyrazole-3-carboxylic acid ethylamide]",57.1 nM
